What was measured:
[1] = biological target: Human α2δ-1 subunit of Cav2.2 calcium channel (Homo sapiens, UniProt P54289); experiment: Human α2δ-1 subunit of Cav2.2 calcium channel assay ([3H]-gabapentin binding); conditions: binding to the α2δ-1 subunit of voltage-gated calcium channels expressed as Ki; + also covers inhibition between 1% and 50%
Procedure, shortened: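 Membranes enriched in human α2δ-1 incubated with 15 nM [3H]-gabapentin in 10 mM Hepes-KOH pH 7.4, 60 min at 27 °C; nonspecific binding defined with 10 μM pregabalin. Filtration and scintillation counting; % inhibition at 1 or 10 μM, or Ki from five concentrations.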

Human σ1 receptor = biological target: T1, Human σ1 receptor (Homo sapiens, UniProt Q99720); experiment: Human σ1 receptor radioligand assay ([3H](+)-pentazocine binding, transfected HEK-293 membranes); conditions: binding to σ1 receptor expressed as Ki; + also covers inhibition between 1% and 50%; read-out: σ-1 binding
T1 construct: expressed in transfected cells; host or cells: HEK-293
Procedure, shortened: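 Membranes (7 μg) were incubated with 5 nM [3H](+)-pentazocine in 50 mM Tris-HCl pH 8 for 120 min at 37° C. Non-specific binding was defined with 10 μM haloperidol. Values are % inhibition at 1 or 10 μM or Ki from five concentrations, read by filtration and scintillation counting.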

T1 sequence (Q99720 whole entry): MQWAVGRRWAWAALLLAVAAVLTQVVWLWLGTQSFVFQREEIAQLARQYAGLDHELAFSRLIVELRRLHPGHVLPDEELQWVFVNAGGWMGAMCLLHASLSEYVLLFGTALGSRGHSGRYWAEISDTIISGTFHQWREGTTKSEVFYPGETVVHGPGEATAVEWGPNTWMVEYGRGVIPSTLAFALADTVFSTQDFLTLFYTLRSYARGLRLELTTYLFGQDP
Chain of Human α2δ-1 subunit of Cav2.2 calcium channel (P54289 25-1103): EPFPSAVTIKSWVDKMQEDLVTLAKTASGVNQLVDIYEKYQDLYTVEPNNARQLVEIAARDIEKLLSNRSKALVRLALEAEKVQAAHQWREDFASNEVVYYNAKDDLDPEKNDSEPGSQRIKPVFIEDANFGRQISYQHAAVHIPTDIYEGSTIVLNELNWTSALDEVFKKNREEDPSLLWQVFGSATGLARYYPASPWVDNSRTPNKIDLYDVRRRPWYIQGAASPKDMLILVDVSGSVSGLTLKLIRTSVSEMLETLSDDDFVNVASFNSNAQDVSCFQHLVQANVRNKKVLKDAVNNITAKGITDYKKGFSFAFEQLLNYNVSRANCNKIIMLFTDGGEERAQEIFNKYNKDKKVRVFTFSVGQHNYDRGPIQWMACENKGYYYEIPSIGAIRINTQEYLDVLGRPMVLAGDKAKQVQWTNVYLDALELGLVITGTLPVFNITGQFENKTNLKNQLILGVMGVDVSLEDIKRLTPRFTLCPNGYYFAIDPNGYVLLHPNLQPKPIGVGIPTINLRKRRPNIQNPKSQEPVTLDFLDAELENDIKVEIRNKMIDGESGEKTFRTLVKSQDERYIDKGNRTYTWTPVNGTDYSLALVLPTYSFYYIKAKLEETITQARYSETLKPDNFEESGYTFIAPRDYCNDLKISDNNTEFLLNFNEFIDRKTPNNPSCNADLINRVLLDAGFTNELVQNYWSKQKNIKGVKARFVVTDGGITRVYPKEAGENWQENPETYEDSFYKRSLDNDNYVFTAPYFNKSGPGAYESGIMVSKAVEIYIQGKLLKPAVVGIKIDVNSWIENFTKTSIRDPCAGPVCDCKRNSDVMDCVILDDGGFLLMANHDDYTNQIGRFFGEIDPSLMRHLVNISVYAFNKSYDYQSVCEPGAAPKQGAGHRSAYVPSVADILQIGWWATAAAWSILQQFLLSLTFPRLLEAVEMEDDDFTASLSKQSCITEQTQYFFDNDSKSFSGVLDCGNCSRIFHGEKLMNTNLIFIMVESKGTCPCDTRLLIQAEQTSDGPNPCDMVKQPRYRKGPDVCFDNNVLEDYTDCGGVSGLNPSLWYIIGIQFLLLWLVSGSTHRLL

Row | SMILES | Ki [1] | Ki (Human σ1 receptor)
1 | Clc1ccc(CN2CCCC(c3ccnc4c(CNCC5CCOCC5)c(C5CC5)nn34)C2)cc1 (stereo not shown) [Example 188, 1-(7-(1-(4-Chlorobenzyl)piperidin-3-yl)-2-cyclopropylpyrazolo[1,5-a]pyrimidin-3-yl)-N-((tetrahydro-2H-pyran-4-yl)methyl)methanamine] | < 0.5 µM | < 0.5 µM
2 | COc1nn2c(C3CCCN(Cc4ccc(Cl)cc4)C3)ccnc2c1CNCC1CCOCC1 (stereo not shown) [Example 189, 1-(7-(1-(4-Chlorobenzyl)piperidin-3-yl)-2-methoxypyrazolo[1,5-a]pyrimidin-3-yl)-N-((tetrahydro-2H-pyran-4-yl)methyl)methanamine] | < 0.5 µM | < 0.5 µM
3 | Clc1ccc(CN2CCCC(c3ccnc4c(CNCC5CCOCC5)c(Cl)nn34)C2)cc1 (stereo not shown) [Example 190, 1-(2-Chloro-7-(1-(4-chlorobenzyl)piperidin-3-yl)pyrazolo[1,5-a]pyrimidin-3-yl)-N-((tetrahydro-2H-pyran-4-yl)methyl)methanamine] | < 0.5 µM | < 0.5 µM
4 | CC(C)CCN1CCCC(c2ccnc3c(CNCC4CCOCC4)c(Cl)nn23)C1 (stereo not shown) [Example 191, 1-(2-Chloro-7-(1-isopentylpiperidin-3-yl)pyrazolo[1,5-a]pyrimidin-3-yl)-N-((tetrahydro-2H-pyran-4-yl)methyl)methanamine] | > 5 µM | < 0.5 µM
5 | CC(=O)N1CCC(CNCc2c(Cl)nn3c(C4CCCN(CCC(C)C)C4)ccnc23)CC1 (stereo not shown) [Example 192, 1-(4-((((2-chloro-7-(1-isopentylpiperidin-3-yl)pyrazolo[1,5-a]pyrimidin-3-yl)methyl)amino)methyl)piperidin-1-yl)ethan-1-one] | > 5 µM | < 0.5 µM
6 | CC(=O)N1CCC(CNCc2c(C)nn3c([C@H]4CCCN(Cc5ccc(Cl)cc5)C4)ccnc23)CC1 [Example 193, (S)-1-(4-((((7-(1-(4-Chlorobenzyl)piperidin-3-yl)-2-methylpyrazolo[1,5-a]pyrimidin-3-yl)methyl)amino)methyl)piperidin-1-yl)ethan-1-one] | < 0.5 µM | < 0.5 µM
7 | CC(=O)N1CCC(CNCc2c(C)nn3c([C@@H]4CCCN(Cc5ccc(Cl)cc5)C4)ccnc23)CC1 [Example 194, (R)-1-(4-((((7-(1-(4-chlorobenzyl)piperidin-3-yl)-2-methylpyrazolo[1,5-a]pyrimidin-3-yl)methyl)amino)methyl)piperidin-1-yl)ethan-1-one] | 0.5 to 5 µM | < 0.5 µM
8 | Cc1nn2c([C@@H]3CCCN(Cc4ccc(Cl)cc4)C3)ccnc2c1CN[C@H](C)c1ccccc1 [Example 195, (R)—N-((7-((R)-1-(4-Chlorobenzyl)piperidin-3-yl)-2-methylpyrazolo[1,5-a]pyrimidin-3-yl)methyl)-1-phenylethan-1-amine] | 0.5 to 5 µM | < 0.5 µM
9 | Cc1nn2c([C@H]3CCCN(Cc4ccc(Cl)cc4)C3)ccnc2c1CN[C@H](C)c1ccccc1 [Example 196, (R)—N-((7-((S)-1-(4-chlorobenzyl)piperidin-3-yl)-2-methylpyrazolo[1,5-a]pyrimidin-3-yl)methyl)-1-phenylethan-1-amine] | > 5 µM | < 0.5 µM
10 | Cc1nn2c([C@@H]3CCCN(Cc4ccc(Cl)cc4)C3)ccnc2c1CN[C@@H](C)c1ccccc1 [Example 197, (S)—N-((7-((R)-1-(4-chlorobenzyl)piperidin-3-yl)-2-methylpyrazolo[1,5-a]pyrimidin-3-yl)methyl)-1-phenylethan-1-amine] | 0.5 to 5 µM | < 0.5 µM
11 | Cc1nn2c([C@H]3CCCN(Cc4ccc(Cl)cc4)C3)ccnc2c1CN[C@@H](C)c1ccccc1 [Example 198, (S)—N-((7-((S)-1-(4-chlorobenzyl)piperidin-3-yl)-2-methylpyrazolo[1,5-a]pyrimidin-3-yl)methyl)-1-phenylethan-1-amine] | < 0.5 µM | < 0.5 µM

From patent US12617797B2, “Substituted pyrazolo [1,5-a]pyrimidines having multimodal activity against pain” (ESTEVE PHARMACEUTICALS, S.A., priority 2020, dated 2026)
